Assay results as given in patent publication US9034825B2, “Treatment of myocardial injury with humanin analogs” (Albert Einstein College of Medicine of Yeshiva University, priority 2007, dated 2015).

Tests used:
NONcNZO10/LtJ mice = test: IP glucose tolerance test in NONcNZO10/LtJ mice; format: in vivo, mouse; details: IP 25 microgram twice a day for 14 days; IP GTT on D15
Experimental: NONcNZO10/LtJ mice were injected IP with HNGF6A 25 microgram twice a day for 14 days. Mice were subjected to 6 hour fast followed by IP GTT on D15. Baseline glucose measurement was taken and the mice were injected IP with 0.5 mg/g glucose. Glucose was sampled at 0 and 90, 120 min.

BP3KO MEFs = test: Apoptosis ELISA in IGFBP3 KO mouse embryonic fibroblasts; format: cell-based; details: 24 hours, 100 nM of peptides
Experimental: (§1) Mouse embryonic fibroblasts derived from normal and IGFBP3 KO mice were used to test the effects of humanin and its analogues on survival. Apoptosis ELISA was used as an output measure and cells were treated for 24 hours with 100 nM of peptides. […] Thus, the HNGF6A humanin analogue has non-obvious properties that are different from previously described humanin derivatives and has increased potency as a result of its specific molecular alteration leading to reduced IGFBP-3 binding.

IGFBP-3 = IGFBP-3 (Homo sapiens, UniProt P17936); test: Dot blots probed with radiolabeled IGFBP-3; format: binding; details: FIG. 17A
Chain of IGFBP-3 (P17936 28-291): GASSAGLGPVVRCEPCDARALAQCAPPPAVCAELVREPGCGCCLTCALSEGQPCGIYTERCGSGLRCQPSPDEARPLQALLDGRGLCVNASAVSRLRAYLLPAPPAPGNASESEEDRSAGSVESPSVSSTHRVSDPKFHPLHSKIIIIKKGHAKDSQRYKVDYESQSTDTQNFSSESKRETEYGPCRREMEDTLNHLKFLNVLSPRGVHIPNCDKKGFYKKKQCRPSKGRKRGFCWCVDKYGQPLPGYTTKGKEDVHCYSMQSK
Experimental: For acute signaling studies, rats were injected ICV with either aCSF, 20 μg of HN or F6A (dissolved in aCSF) over 5 min, and sacrificed 30 min later. Tissue sample were obtained from mediobasal hypothalamus, liver and muscle. Samples were also obtained from these tissues at the end of the clamp and western blot analysis was performed as described previously (Muzumdar et al. 2003) The blots were scanned using the LI-COR Odyssey (LI-COR, Lincoln, Nebr., USA) and quantified using Odyssey 2.0 software based on direct fluorescence measurement. Dot blots were performed by blotting 50 ng of humanin, HN-analogues, and IGF on nitrocellulose, incubating with 125-I-labeled-IGFBP-3, autoradiography and scanning.

normal MEFs = test: Apoptosis ELISA in normal mouse embryonic fibroblasts; format: cell-based; details: 24 hours, 100 nM of peptides
Experimental: as §1

Sprague-Dawley rats = test: Intravenous infusion of humanin or analogs during hyperinsulinemic clamp; format: in vivo, rat; details: infused peripherally 0.0375 mg/kg/hr

MAPRGASCLLLLTGEIDLPVKRRA (Humanin analog HNGF6A) [HN with alanine at 6th amino acid]
glucose levels at 90 and 120 min (NONcNZO10/LtJ mice): significantly lower | glucose tolerance (NONcNZO10/LtJ mice): significantly better glucose tolerance | potency on survival (Apoptosis ELISA) (BP3KO MEFs): equal potency | ability to bind IGFBP-3 (IGFBP-3): completely devoid of the ability to bind IGFBP-3 | potency on survival (Apoptosis ELISA) (normal MEFs): more potent | glucose infusion rates during clamp (Sprague-Dawley rats): significantly higher | hepatic glucose production (Sprague-Dawley rats; clamp): suppressive effects | peripheral glucose uptake (Sprague-Dawley rats; clamp): significant increase
